Like-named read-outs stand apart in the source and are kept apart here.

The test system of series [1] is Ba/F3 BCR-ABL1 Y253H/T315I. Description: Cell growth inhibition activity test, single agents and combinations (CellTiter-Glo, Chou-Talalay). Format: cell-based, mouse. As to conditions: Mus musculus; for IC90: Fig. 3. On the procedure: (§1) A series of cell lines expressing BCR-ABL1 single mutations and compound mutations were constructed based on the Ba/F3 mouse pro-B cell line.
(§2) This assay utilized the CellTiter-Glo (CTG) kit provided by Promega, which is a homogeneous method for cell viability detection, measuring the viability of cultured cells by quantifying ATP. Cells were seeded in 96-well plates and treated with different concentrations of test substances. […] At the end of the treatment, CTG reagent (CellTiter-Glo kit) was added according to the manufacturer's instructions to detect cell viability values. Plates were read on a microplate reader (Biotek cytation 3.0). IC50 values were calculated using GraphPad Prism 7.0 software.
(In general: Cellular ATP, detected with luciferase, serves as a proxy for viable cell number.)

For series [2], the system named is Ba/F3 BCR-ABL1 E255V/T315I. Described as above. In kind it is cell-based. As to conditions: Mus musculus, BaF3, 72 h. On the procedure:
as §1, §2

The test system of series [3] is Ba/F3 BCR-ABL1 Q252H/T315I. Described as above. In kind it is cell-based, mouse. To be noted: for IC50: Mus musculus, BaF3, 72 h. On the procedure: as §1, §2
For series [4], the system named is Ba/F3 BCR-ABL1 T315M. Described as above. Format: cell-based, mouse. On the procedure: as §1, §2
For series [5] the following is noted: clinical dose of 45 mg QD; cited from earlier work.
The nature of series [6]: Tissue distribution study using quantitative whole-body autoradiography (QWBA). In kind it is in vivo, Long-Evans rats and Sprague-Dawley rats. To be noted: single oral 50 mg/100 µCi/kg. Here is the method:
This test utilized a total of 8 male Long Evans (LE) rats, randomly designated as Gt1M01 to Gt1M08; and 4 Sprague-Dawley (SD) rats, with an equal number of males and females, randomly designated as Gt2M01 to Gt2M02 and Gt2F01 to Gt2F02. Each rat received a single oral dose of 50 mg/100 µCi/kg of [^14C]-Compound A via gavage. SD rats were euthanized at 4 hours and 72 hours post-dose (with the 72-hour rats serving as backups); LE rats were euthanized at 0.5 hours, 4 hours, 24 hours, 72 hours, 168 hours, 336 hours, 504 hours, and 840 hours post-dose (with the 504-hour and 840-hour rats serving as backups). According to the rat sequence numbers, one male and one female SD rat and one male LE rat were transferred to an induction chamber, euthanized with an overdose of carbon dioxide, and about 4 mL of whole blood was collected via cardiac puncture. Immediately after blood collection, the carcasses were immersed in a dry ice-hexane bath for freezing and fixation.
Plasma samples were obtained by low-temperature centrifugation of whole blood. After homogenization, aliquots of each plasma sample were mixed directly with scintillation fluid, and the radioactivity was measured using a liquid scintillation counter (LSC). Frozen carcasses were sectioned, dried, and exposed/developed to determine total radioactivity in tissues/regions (including gastrointestinal contents). Pharmacokinetic parameters for total radioactivity in plasma and tissues were calculated using a non-compartmental model with WinNonLin software (version 8.3, Certara). After development of sections at each time point, 46 tissues/regions (including gastrointestinal contents) were analyzed for LE rats, and 45 tissues/regions (including gastrointestinal contents) were analyzed for SD rats. The radioactivity concentrations in unanalyzed regions were all lower than the lowest concentration in the analyzed tissues or regions.

On to `Cc1ncc(NC(=O)c2ccc(CN3CCN(C)CC3)c(C(F)(F)F)c2)cc1Nc1nccc(-c2cccnc2)n1` [flumatinib], for which the IC50 in series [1] (BaF3, 72 h, single agent, Y253H/T315I, 72 hours, read-out: IC50) was found to be 8420 ± 245 nM.
For `Cc1ccc(C(=O)Nc2ccc(CN3CCN(C)CC3)c(C(F)(F)F)c2)cc1C#Cc1cnc2[nH]ncc2c1` [olverembatinib], the IC50 in series [2] turned out to be 25.8 ± 2.9 nM; in series [3], 7.7 ± 0.01 nM; in series [1] (BaF3, 72 h, read-out: IC50^I1), 36.9 nM; in series [1] (BaF3, read-out: IC50^I2), 5.44 nM.
With `Cc1ccc(C(=O)Nc2ccc(CN3CCN(C)CC3)c(C(F)(F)F)c2)cc1C#Cc1cnc2cccnn12` [ponatinib], in series [4] (single-agent ponatinib, Fig. 6), the anti-proliferative effect entry is “no anti-proliferative effect”. Further, the “inhibition of cell viability” value in series [3] (single-agent ponatinib at 60 nM and 48 nM, Fig. 5) is “could be inhibited”. Moreover, the concentration for an effect of 90% (IC90) is 165 nM in series [1] (BaF3, read-out: IC90 value of ponatinib, ponatinib in combination with asciminib) and 60.9 nM in series [1] (BaF3, read-out: IC90 value of ponatinib, ponatinib in combination with compound A). Further, the “minimum plasma concentration at steady state (Cssmin)” value in series [5] was 64.3 nM.
For `COc1cc(Nc2c(C#N)cnc3cc(OCCCN4CCN(C)CC4)c(OC)cc23)c(Cl)cc1Cl` [bosutinib], the IC50 in series [2] stood at 3920 ± 1380 nM; in series [4] (Mus musculus, BaF3, 72 h), 3970 ± 151 nM; in series [3], 3130 ± 9.9 nM; in series [1] (BaF3, 72 h), 3715 ± 9.9 nM.
On to `O=C(Nc1ccc(OC(F)(F)Cl)cc1)c1cnc(N2CC[C@@H](F)C2)c(-c2cnccn2)c1` [[14C]-Compound A], for which the “Total Radioactivity, Plasma” value turned out to be 15320 ng Eq./g in series [6] (Female SD rats, 4 hrs); 7131 ng Eq./g in series [6] (Male LE rats, 0.5 hrs); 11981 ng Eq./g in series [6] (Male LE rats, 4 hrs); 10656 ng Eq./g in series [6] (Male SD rats, 4 hrs). Further, the “Total Radioactivity, Whole brain” value in series [6] (Female SD rats, 4 hrs) was determined as 9800 ng Eq./g; in series [6] (Male LE rats, 0.5 hrs), 4885 ng Eq./g; in series [6] (Male LE rats, 4 hrs) it was 6950 ng Eq./g; in series [6] (Male SD rats, 4 hrs), 6400 ng Eq./g.

By IC50 is commonly meant the concentration that gives 50% inhibition. As usually defined, the IC90 is the point of the concentration-response curve where the effect stands at 90%.

The values are drawn from patent publication EP4803080A1, “METHOD FOR TREATING LEUKEMIA” (Shenzhen TargetRx Co., Ltd., priority 2023, dated 2025).
